Data set [1] can be described thus: Carotenoid content in fish flesh of silver salmon by HPLC. The settings on record: for Ratio to astaxanthin: silver salmon fish flesh; for Ratio to astaxanthin / Content in fish flesh: 6 months; for Content in fish flesh / concentration at 6 months: silver salmon, average of 10 fish; for concentration at 6 months: silver salmon (Oncorhynchus kisutch), fish flesh, oral. Type of data set: in vivo, Oncorhynchus kisutch. As to the method:
In the examples, the quantification of the carotenoid colorant was performed using high performance liquid chromatography (HPLC). Two columns of Wakosil-II 5 SIL-100 φ4.6×250 mm (produced by Wako Pure Chemical Industries, Ltd.) were connected to each other. An n-hexane:tetrahydrofuran:methanol (40:20:1) mixed solution was used as a mobile phase. A constant room temperature and a flow rate of 1.0 ml/min were used. The detection was performed at a wavelength of 470 nm. The feed or fish flesh was milled, and then the colorant was extracted with a tetrahydrofuran:methanol (20:1) mixed solution. The colorant was appropriately diluted with the mobile phase and analyzed by HPLC. 300 silver salmons (Oncorhynchus kisutch) each weighing about 200 g were cultivated as a test division of being fed with the above-described fermented product, and another 300 silver salmons each weighing about 200 g were cultivated as a test division of being fed with the above-described synthetic product. The salmons were fed in satiation in a marine fish pen for 6 months. After the 6 months of cultivating, 10 fish of each test division were weighed. […] The fish were immediately killed by cutting medulla and frozen for preservation. After being thawed, the fish flesh was milled by a coffee mill, and a part thereof was put into a polyethylene bag to measure the color tone thereof by a spectrometer CM-508i (Minolta). […] From a part of the milled fish flesh, the carotenoid colorant was extracted, and analyzed in terms of the content of each carotenoid compound by HPLC.

Data set [2] is described as follows: Carotenoid content in fish flesh of rainbow trout by HPLC. Type of data set: in vivo, Oncorhynchus mykiss. The following applies: for Ratio to astaxanthin: rainbow trout fish flesh; for Ratio to astaxanthin / Content in fish flesh: 3 months; for Content in fish flesh / concentration at 3 months: rainbow trout, average of 12 fish; for concentration at 3 months: rainbow trout (Oncorhynchus mykiss), fish flesh, oral. As to the method:
In the examples, the quantification of the carotenoid colorant was performed using high performance liquid chromatography (HPLC). Two columns of Wakosil-II 5 SIL-100 φ4.6×250 mm (produced by Wako Pure Chemical Industries, Ltd.) were connected to each other. An n-hexane:tetrahydrofuran:methanol (40:20:1) mixed solution was used as a mobile phase. A constant room temperature and a flow rate of 1.0 ml/min were used. The detection was performed at a wavelength of 470 nm. The feed or fish flesh was milled, and then the colorant was extracted with a tetrahydrofuran:methanol (20:1) mixed solution. The colorant was appropriately diluted with the mobile phase and analyzed by HPLC. 50 rainbow trouts (Oncorhynchus mykiss) each weighing about 100 g were cultivated in a water tank as a test division of being fed with the above-described fermented product, and another 50 rainbow trouts each weighing about 100 g were cultivated in a water tank as a test division of being fed with the above-described synthetic product. The trouts of each test division were fed in satiation in fresh water for 3 months. After the 3 months of cultivating, 12 fish of each test division were weighed. […] The fish were immediately killed by cutting medulla. […] After the measurement, the fish flesh was frozen for preservation. After being thawed, the fish flesh of the 12 fish of each test division was analyzed in terms of the content of each carotenoid compound.

The nature of data set [3]: Carotenoid content in fish flesh of Atlantic salmon by HPLC. Type of data set: in vivo, Salmo salar. The following applies: for Ratio to astaxanthin: Atlantic salmon fish flesh; for Ratio to astaxanthin / Content in fish flesh: 12 months; for Content in fish flesh / concentration at 12 months: Atlantic salmon, flesh frozen 1 month, average of 20 fish; for concentration at 12 months: Atlantic salmon (Salmo salar), oral. As to the method:
In the examples, the quantification of the carotenoid colorant was performed using high performance liquid chromatography (HPLC). Two columns of Wakosil-II 5 SIL-100 φ4.6×250 mm (produced by Wako Pure Chemical Industries, Ltd.) were connected to each other. An n-hexane:tetrahydrofuran:methanol (40:20:1) mixed solution was used as a mobile phase. A constant room temperature and a flow rate of 1.0 ml/min were used. The detection was performed at a wavelength of 470 nm. The feed or fish flesh was milled, and then the colorant was extracted with a tetrahydrofuran:methanol (20:1) mixed solution. The colorant was appropriately diluted with the mobile phase and analyzed by HPLC. 400 Atlantic salmons (Salmo salar) each weighing about 300 g were cultivated as a test division of being fed with the above-described fermented product, and another 400 Atlantic salmons each weighing about 300 g were cultivated as a test division of being fed with the above-described synthetic product. The salmons were fed in satiation in a marine fish pen for 12 months. After the 12 months of cultivating, 20 fish of each test division were landed and weighed. […] The fish were immediately killed by cutting medulla, and the fish flesh was measured in terms of the color tone by a spectrometer. […] After the measurement, the fish flesh was frozen for preservation for 1 month. After being thawed, the fish flesh of the 20 fish of each test division was analyzed in terms of the content of each carotenoid compound.

The nature of data set [4]: Carotenoid content in fish flesh of king salmon by HPLC. Type of data set: in vivo, Oncorhynchus tshawytscha. The settings on record: for Ratio to astaxanthin: king salmon fish flesh; for Ratio to astaxanthin / Content in fish flesh: 3 months; for Content in fish flesh / concentration at 3 months: king salmon, flesh frozen 1 month, average of 15 fish; for concentration at 3 months: king salmon (Oncorhynchus tshawytscha), oral. The method, then:
In the examples, the quantification of the carotenoid colorant was performed using high performance liquid chromatography (HPLC). Two columns of Wakosil-II 5 SIL-100 φ4.6×250 mm (produced by Wako Pure Chemical Industries, Ltd.) were connected to each other. An n-hexane:tetrahydrofuran:methanol (40:20:1) mixed solution was used as a mobile phase. A constant room temperature and a flow rate of 1.0 ml/min were used. The detection was performed at a wavelength of 470 nm. The feed or fish flesh was milled, and then the colorant was extracted with a tetrahydrofuran:methanol (20:1) mixed solution. The colorant was appropriately diluted with the mobile phase and analyzed by HPLC. 100 king salmons (Oncorhynchus tshawytscha) each weighing about 200 g were cultivated as a test division of being fed with the above-described fermented product, and another 100 king salmons each weighing about 200 g were cultivated as a test division of being fed with the above-described synthetic product. The salmons were fed in satiation in a marine fish pen for 3 months. After the 3 months of cultivating, 15 fish of each test division were sampled and weighed. […] The fish were immediately killed by cutting medulla. […] After the measurement, the fish flesh was frozen for preservation for 1 month. After being thawed, the fish flesh of the fish of each test division was analyzed in terms of the content of each carotenoid compound.

Structures are written as SMILES.

For `CC1=C(/C=C/C(C)=C/C=C/C(C)=C/C=C/C=C(C)/C=C/C=C(C)/C=C/C2=C(C)C(=O)[C@@H](O)CC2(C)C)C(C)(C)CCC1` [3-hydroxyequinenone], the Ratio to astaxanthin in data set [1] (Fermented product division) is on record as 0.2 or less %; in data set [2] (Fermented product division), 0.6 or less %; in data set [3] (Fermented product division), 0.5 or less %; in data set [4] (Fermented product division) it was 0.5 or less %. Moreover, the “Content in fish flesh” value in data set [1] (Fermented product division), in data set [1] (Synthetic product division), in data set [2] (Fermented product division), in data set [2] (Synthetic product division), in data set [3] (Fermented product division) and in data set [3] (Synthetic product division) was 0.02 or less mg/kg each time. Also, the “Content in fish flesh” value in data set [4] (Fermented product division) and in data set [4] (Synthetic product division) was 0.02 or less mg/kg in each case.

For the molecule `CC1=C(/C=C/C(C)=C/C=C/C(C)=C/C=C/C=C(C)/C=C/C=C(C)/C=C/C2=C(C)C(=O)[C@@H](O)CC2(C)C)C(C)(C)C[C@H](O)C1` [Adonixanthin], the Ratio to astaxanthin stood at 23.1% in data set [1] (Fermented product division), 2.9% in data set [2] (Fermented product division), 4.9% in data set [3] (Fermented product division) and 6.5% in data set [4] (Fermented product division). Also, the “Content in fish flesh” value is listed as 2.4 mg/kg in data set [1] (Fermented product division); 0.02 or less mg/kg in data set [1] (Synthetic product division); 0.1 mg/kg in data set [2] (Fermented product division); 0.02 or less mg/kg in data set [2] (Synthetic product division); 0.2 mg/kg in data set [3] (Fermented product division); 0.02 or less mg/kg in data set [3] (Synthetic product division). The “Content in fish flesh” value is listed as 0.3 mg/kg in data set [4] (Fermented product division) and 0.02 or less mg/kg in data set [4] (Synthetic product division).

With `CC1=C(/C=C/C(C)=C/C=C/C(C)=C/C=C/C=C(C)/C=C/C=C(C)/C=C/C2=C(C)C(=O)[C@@H](O)CC2(C)C)C(C)(C)C[C@H](O)C1=O` [Astaxanthin], the Ratio to astaxanthin in data set [1] (Fermented product division), in data set [2] (Fermented product division), in data set [3] (Fermented product division) and in data set [4] (Fermented product division) was 100% throughout. Also, the concentration at 6 months in data set [1] (43.2 mg/kg feed, Fermented product division) was 10400 ng/g; in data set [1] (44.3 mg/kg feed, Synthetic product division), 12700 ng/g. Further, the concentration at 3 months in data set [2] (63.2 mg/kg feed, Fermented product division) turned out to be 3400 ng/g; in data set [2] (64.6 mg/kg feed, Synthetic product division) it was 6300 ng/g; in data set [4] (70.3 mg/kg feed, Synthetic product division), 7200 ng/g; in data set [4] (72.7 mg/kg feed, Fermented product division), 4600 ng/g. For the same molecule, the concentration at 12 months in data set [3] (79.8 mg/kg feed, Fermented product division) is 4100 ng/g; in data set [3] (81.6 mg/kg feed, Synthetic product division), 6200 ng/g.

With `CC1=C(/C=C/C(C)=C/C=C/C(C)=C/C=C/C=C(C)/C=C/C=C(C)/C=C/C2=C(C)C(=O)CCC2(C)C)C(C)(C)CCC1=O` [Canthaxanthin], the Ratio to astaxanthin in data set [1] (Fermented product division) is reported as 1.0%; in data set [2] (Fermented product division) it was 11.8%; in data set [3] (Fermented product division), 9.8%; in data set [4] (Fermented product division) it was 6.5%. For the same molecule, the “Content in fish flesh” value is on record as 0.1 mg/kg in data set [1] (Fermented product division); 0.02 or less mg/kg in data set [1] (Synthetic product division); 0.4 mg/kg in data set [2] (Fermented product division); 0.02 or less mg/kg in data set [2] (Synthetic product division); 0.4 mg/kg in data set [3] (Fermented product division); 0.02 or less mg/kg in data set [3] (Synthetic product division). Besides, the “Content in fish flesh” value in data set [4] (Fermented product division) is on record as 0.3 mg/kg; in data set [4] (Synthetic product division) it was 0.02 or less mg/kg.

Turning to `CC1=C(/C=C/C(C)=C/C=C/C(C)=C/C=C/C=C(C)/C=C/C=C(C)/C=C/C2=C(C)C(=O)CCC2(C)C)C(C)(C)CCC1` [Equinenone], the Ratio to astaxanthin in data set [1] (Fermented product division) was 0.2 or less %; in data set [2] (Fermented product division) it was 0.6 or less %; in data set [3] (Fermented product division) it was 0.5 or less %; in data set [4] (Fermented product division), 0.5 or less %. The “Content in fish flesh” value in data set [1] (Fermented product division), in data set [1] (Synthetic product division), in data set [2] (Fermented product division), in data set [2] (Synthetic product division), in data set [3] (Fermented product division) and in data set [3] (Synthetic product division) was 0.02 or less mg/kg in each case. For the same molecule, the “Content in fish flesh” value in data set [4] (Fermented product division) and in data set [4] (Synthetic product division) was 0.02 or less mg/kg throughout.

`CC1=C(/C=C/C(C)=C/C=C/C(C)=C/C=C/C=C(C)/C=C/C=C(C)/C=C/C2=C(C)C(=O)[C@@H](O)CC2(C)C)C(C)(C)CCC1=O` [Phoenicoxanthin]: the Ratio to astaxanthin in data set [1] (Fermented product division) turned out to be 11.5%; in data set [2] (Fermented product division), 67.6%; in data set [3] (Fermented product division), 41.5%; in data set [4] (Fermented product division), 45.7%. Besides, the “Content in fish flesh” value in data set [1] (Fermented product division) is given as 1.2 mg/kg; in data set [1] (Synthetic product division), 0.02 or less mg/kg; in data set [2] (Fermented product division) it was 2.3 mg/kg; in data set [2] (Synthetic product division), 0.02 or less mg/kg; in data set [3] (Fermented product division), 1.7 mg/kg; in data set [3] (Synthetic product division) it was 0.02 or less mg/kg. Besides, the “Content in fish flesh” value is 2.1 mg/kg in data set [4] (Fermented product division) and 0.02 or less mg/kg in data set [4] (Synthetic product division).

Source of the values: patent publication US8999664B2, “Method of improving salmon meat color” (JX Nippon Oil & Energy Corporation, priority 2006, dated 2015).
